Experimental data from patent US6706663B2, “Herbicidal 3-heterocyclic substituted benzisothiazole and benzisoxazole compounds” (Wyeth, priority 2000, dated 2004).

Legend:
[1] = tested on: ABUTH (Abutilon theophrasti); experiment: Postemergence herbicidal evaluation; assay type: in vivo, Medic.
Procedure, shortened: (§1)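 Visual 0–9 injury scores versus control plants, covering stand, vigour, malformation, size, chlorosis and general appearance, taken four to five weeks post-spray and averaged over replicate tests. Plants were sprayed at roughly two weeks old and held on greenhouse benches.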

[2] = tested on: AMBEL (Ambrosia artemisifolia); experiment: Postemergence herbicidal evaluation; assay type: in vivo, L.
Procedure, shortened: as §1

[3] = tested on: CASOB (Cassia obtusifolia); experiment: Postemergence herbicidal evaluation; assay type: in vivo, L.
Procedure, shortened: as §1

[4] = tested on: CHEAL (Chenopodium album); experiment: Postemergence herbicidal evaluation; assay type: in vivo, L.
Procedure, shortened: as §1

[5] = tested on: GALAP (Galium aparine); experiment: Postemergence herbicidal evaluation; assay type: in vivo
Procedure, shortened: as §1

[6] = tested on: ECHCG (Echinochloa crus-galli); experiment: Postemergence herbicidal evaluation; assay type: in vivo, (L.) Beau
Procedure, shortened: as §1

[7] = tested on: GLXMAW (Soybean, Williams); experiment: Postemergence herbicidal evaluation; assay type: in vivo, Glycine max, (L.) Merr. cv Williams
Procedure, shortened: as §1

[8] = tested on: ORYSAT (Rice, Tebonnet); experiment: Postemergence herbicidal evaluation; assay type: in vivo, Oryza sativa, (L.) Tebonnet
Procedure, shortened: as §1

[9] = tested on: ZEAMX (Corn, Field); experiment: Postemergence herbicidal evaluation; assay type: in vivo, Zea mays, L.
Procedure, shortened: as §1

[10] = tested on: ABUTH (Abutilon theophrasti); experiment: Preemergence herbicidal evaluation; assay type: in vivo, Medic.; conditions: preemergence, rated 4-5 weeks after treatment
[11] = tested on: AMBEL (Ambrosia artemisifolia); experiment: Preemergence herbicidal evaluation; assay type: in vivo, L.; conditions: preemergence, rated 4-5 weeks after treatment
Procedure, shortened: (§2)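 Visual 0-9 rating versus untreated control, taken four to five weeks post-treatment, scoring stand, vigor, malformation, size, chlorosis and overall appearance. Compound applied as aqueous acetone spray to freshly seeded soil cups, then kept under standard greenhouse care.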

[12] = tested on: CASOB (Cassia obtusifolia); experiment: Preemergence herbicidal evaluation; assay type: in vivo, L.; conditions: preemergence, rated 4-5 weeks after treatment
Procedure, shortened: as §2

[13] = tested on: CHEAL (Chenopodium album); experiment: Preemergence herbicidal evaluation; assay type: in vivo, L.; conditions: preemergence, rated 4-5 weeks after treatment
Procedure, shortened: as §2

[14] = tested on: GALAP (Galium aparine); experiment: Preemergence herbicidal evaluation; assay type: in vivo; conditions: preemergence, rated 4-5 weeks after treatment
Procedure, shortened: as §2

[15] = tested on: IPOHE (Ipomoea hederacea); experiment: Preemergence herbicidal evaluation; assay type: in vivo, (L.) Jacq.; conditions: preemergence, rated 4-5 weeks after treatment
[16] = tested on: ORYSAT (Rice, Tebonnet); experiment: Preemergence herbicidal evaluation; assay type: in vivo, Oryza sativa, (L.) Tebonnet; conditions: preemergence, rated 4-5 weeks after treatment
[17] = tested on: TRZAWR (Wheat, Winter, cv Riband); experiment: Preemergence herbicidal evaluation; assay type: in vivo, Triticum aestivum; conditions: preemergence, rated 4-5 weeks after treatment
Procedure, shortened: as §2

[18] = tested on: CYPSE (Cyperus serotinus); experiment: Flooded paddy, preemergence weed control; assay type: in vivo, Rottb.; conditions: rated 3-4 weeks after treatment, 0-9 rating scale
Procedure, shortened: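 Herbicidal effect was scored visually on a 0–9 scale against an untreated control 3–4 weeks after treatment. Compounds were applied preemergence as 50/50 v/v aqueous/acetone mixtures into flood water (1.5–3 cm deep over silt loam), at roughly 0.0080 to 0.1250 kg/ha active ingredient.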

[19] = tested on: SAGPY (Sagittaria pygmaea); experiment: Flooded paddy, preemergence weed control; assay type: in vivo, L.; conditions: rated 3-4 weeks after treatment, 0-9 rating scale
Procedure, shortened: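 Silt loam, sowing depth ≤0.5 cm; permanent flood 1.5–3 cm above soil; greenhouse culture after treatment. Readout: 0-9 visual scale (stand, vigor, malformation, size, chlorosis, appearance) vs control.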

[20] = tested on: ORYSAT (Rice, Tebonnet); experiment: Flooded paddy, post-transplant rice tolerance; assay type: in vivo, Oryza sativa, (L.) Tebonnet; conditions: flooded paddy, post-transplant rice, rated 3-4 weeks after treatment, 0-9 rating scale
Procedure, shortened: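 Seedlings aged ten days are transplanted in pairs into undrained pots of silt loam, which are then flooded to a depth of 1.5 to 3 cm. After herbicide application the pots are kept in a greenhouse with the flood maintained. Plants are rated 0-9 by visual comparison with controls.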

Cc1ccc(-c2nsc3ccc(-n4c(=O)cc(C(F)(F)F)n(C)c4=O)cc23)s1 [Compound 21, 1-methyl-3-[3-(5-methyl-2-thienyl)-1,2-benzisothiazol-5-yl]-6-(trifluoromethyl)uracil]
6.0: Postemergence herbicidal rating, GLXMAW ([7]; rate 0.0620 kg/ha) | Postemergence herbicidal rating, GLXMAW ([7]; rate 0.1250 kg/ha) | herbicidal rating, SAGPY ([19]; rate 0.1250 kg/ha)
7.5: ABUTH preemergence herbicidal rating ([10]; Rate 0.1250 kg/ha) | AMBEL preemergence herbicidal rating ([11]; Rate 0.2500 kg/ha)
4.0: Postemergence herbicidal rating, CASOB ([3]; rate 0.0620 kg/ha) | Postemergence herbicidal rating, GALAP ([5]; rate 0.0620 kg/ha) | Postemergence herbicidal rating, ECHCG ([6]; rate 0.0320 kg/ha) | Postemergence herbicidal rating, ECHCG ([6]; rate 0.0620 kg/ha) | Postemergence herbicidal rating, ECHCG ([6]; rate 0.1250 kg/ha) | Postemergence herbicidal rating, ORYSAT ([8]; rate 0.0320 kg/ha) | ABUTH preemergence herbicidal rating ([10]; Rate 0.0620 kg/ha)
5.5: Postemergence herbicidal rating, GLXMAW ([7]; rate 0.0320 kg/ha) | Postemergence herbicidal rating, ZEAMX ([9]; rate 0.0620 kg/ha) | Postemergence herbicidal rating, ZEAMX ([9]; rate 0.1250 kg/ha) | AMBEL preemergence herbicidal rating ([11]; Rate 0.1250 kg/ha)
7.0: Postemergence herbicidal rating, CASOB ([3]; rate 0.1250 kg/ha) | Postemergence herbicidal rating, CHEAL ([4]; rate 0.0320 kg/ha)
0.5: CASOB preemergence herbicidal rating ([12]; Rate 0.1250 kg/ha) | ORYSAT preemergence herbicidal rating ([16]; Rate 0.1250 kg/ha)
3.0: GALAP preemergence herbicidal rating ([14]; Rate 0.0620 kg/ha) | herbicidal rating, ORYSAT (rice tolerance) ([20]; rate 0.1250 kg/ha)
5.0: Postemergence herbicidal rating, ZEAMX ([9]; rate 0.0320 kg/ha) | IPOHE preemergence herbicidal rating ([15]; Rate 0.2500 kg/ha)
2.0: Postemergence herbicidal rating, CASOB ([3]; rate 0.0320 kg/ha) | AMBEL preemergence herbicidal rating ([11]; Rate 0.0620 kg/ha) | CASOB preemergence herbicidal rating ([12]; Rate 0.2500 kg/ha) | GALAP preemergence herbicidal rating ([14]; Rate 0.1250 kg/ha) | IPOHE preemergence herbicidal rating ([15]; Rate 0.1250 kg/ha) | TRZAWR preemergence herbicidal rating ([17]; Rate 0.2500 kg/ha) | herbicidal rating, ORYSAT (rice tolerance) ([20]; rate 0.0320 kg/ha)
9.0: Postemergence herbicidal rating, ABUTH ([1]; rate 0.0320 kg/ha) | Postemergence herbicidal rating, ABUTH ([1]; rate 0.0620 kg/ha) | Postemergence herbicidal rating, ABUTH ([1]; rate 0.1250 kg/ha) | Postemergence herbicidal rating, AMBEL ([2]; rate 0.0320 kg/ha) | Postemergence herbicidal rating, AMBEL ([2]; rate 0.0620 kg/ha) | Postemergence herbicidal rating, AMBEL ([2]; rate 0.1250 kg/ha) | Postemergence herbicidal rating, CHEAL ([4]; rate 0.0620 kg/ha) | Postemergence herbicidal rating, CHEAL ([4]; rate 0.1250 kg/ha) | Postemergence herbicidal rating, GALAP ([5]; rate 0.1250 kg/ha) | ABUTH preemergence herbicidal rating ([10]; Rate 0.2500 kg/ha) | CHEAL preemergence herbicidal rating ([13]; Rate 0.0620 kg/ha) | CHEAL preemergence herbicidal rating ([13]; Rate 0.1250 kg/ha) | CHEAL preemergence herbicidal rating ([13]; Rate 0.2500 kg/ha) | GALAP preemergence herbicidal rating ([14]; Rate 0.2500 kg/ha)
4.5: Postemergence herbicidal rating, ORYSAT ([8]; rate 0.1250 kg/ha) | herbicidal rating, CYPSE ([18]; rate 0.0320 kg/ha) | herbicidal rating, CYPSE ([18]; rate 0.1250 kg/ha)
0.0: CASOB preemergence herbicidal rating ([12]; Rate 0.0620 kg/ha) | IPOHE preemergence herbicidal rating ([15]; Rate 0.0620 kg/ha) | ORYSAT preemergence herbicidal rating ([16]; Rate 0.0620 kg/ha) | TRZAWR preemergence herbicidal rating ([17]; Rate 0.0620 kg/ha) | herbicidal rating, CYPSE ([18]; rate 0.0080 kg/ha) | herbicidal rating, SAGPY ([19]; rate 0.0080 kg/ha) | herbicidal rating, SAGPY ([19]; rate 0.0320 kg/ha) | herbicidal rating, ORYSAT (rice tolerance) ([20]; rate 0.0080 kg/ha)
1.0: Postemergence herbicidal rating, GALAP ([5]; rate 0.0320 kg/ha) | TRZAWR preemergence herbicidal rating ([17]; Rate 0.1250 kg/ha)
3.5: Postemergence herbicidal rating, ORYSAT ([8]; rate 0.0620 kg/ha) | ORYSAT preemergence herbicidal rating ([16]; Rate 0.2500 kg/ha)
